This experiment concerns the target T1, ALK R1275Q (Homo sapiens, UniProt Q9UM73, R1275Q).
T1 construct: purchased Thermo Fisher Scientific (Life Technologies) SelectScreen
As to the kind of experiment: SelectScreen LanthaScreen. Conditions: read-out: % displacement. In kind it is binding. The method in brief:
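Percent values come from Thermo SelectScreen profiling of NU5455, combining activity and binding assays. CSF1R was run in Z'LYTE format at Km app ATP, and CAMK1 in Adapta format with ATP listed at 10.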

T1 sequence (Q9UM73 19-1620 R1275Q): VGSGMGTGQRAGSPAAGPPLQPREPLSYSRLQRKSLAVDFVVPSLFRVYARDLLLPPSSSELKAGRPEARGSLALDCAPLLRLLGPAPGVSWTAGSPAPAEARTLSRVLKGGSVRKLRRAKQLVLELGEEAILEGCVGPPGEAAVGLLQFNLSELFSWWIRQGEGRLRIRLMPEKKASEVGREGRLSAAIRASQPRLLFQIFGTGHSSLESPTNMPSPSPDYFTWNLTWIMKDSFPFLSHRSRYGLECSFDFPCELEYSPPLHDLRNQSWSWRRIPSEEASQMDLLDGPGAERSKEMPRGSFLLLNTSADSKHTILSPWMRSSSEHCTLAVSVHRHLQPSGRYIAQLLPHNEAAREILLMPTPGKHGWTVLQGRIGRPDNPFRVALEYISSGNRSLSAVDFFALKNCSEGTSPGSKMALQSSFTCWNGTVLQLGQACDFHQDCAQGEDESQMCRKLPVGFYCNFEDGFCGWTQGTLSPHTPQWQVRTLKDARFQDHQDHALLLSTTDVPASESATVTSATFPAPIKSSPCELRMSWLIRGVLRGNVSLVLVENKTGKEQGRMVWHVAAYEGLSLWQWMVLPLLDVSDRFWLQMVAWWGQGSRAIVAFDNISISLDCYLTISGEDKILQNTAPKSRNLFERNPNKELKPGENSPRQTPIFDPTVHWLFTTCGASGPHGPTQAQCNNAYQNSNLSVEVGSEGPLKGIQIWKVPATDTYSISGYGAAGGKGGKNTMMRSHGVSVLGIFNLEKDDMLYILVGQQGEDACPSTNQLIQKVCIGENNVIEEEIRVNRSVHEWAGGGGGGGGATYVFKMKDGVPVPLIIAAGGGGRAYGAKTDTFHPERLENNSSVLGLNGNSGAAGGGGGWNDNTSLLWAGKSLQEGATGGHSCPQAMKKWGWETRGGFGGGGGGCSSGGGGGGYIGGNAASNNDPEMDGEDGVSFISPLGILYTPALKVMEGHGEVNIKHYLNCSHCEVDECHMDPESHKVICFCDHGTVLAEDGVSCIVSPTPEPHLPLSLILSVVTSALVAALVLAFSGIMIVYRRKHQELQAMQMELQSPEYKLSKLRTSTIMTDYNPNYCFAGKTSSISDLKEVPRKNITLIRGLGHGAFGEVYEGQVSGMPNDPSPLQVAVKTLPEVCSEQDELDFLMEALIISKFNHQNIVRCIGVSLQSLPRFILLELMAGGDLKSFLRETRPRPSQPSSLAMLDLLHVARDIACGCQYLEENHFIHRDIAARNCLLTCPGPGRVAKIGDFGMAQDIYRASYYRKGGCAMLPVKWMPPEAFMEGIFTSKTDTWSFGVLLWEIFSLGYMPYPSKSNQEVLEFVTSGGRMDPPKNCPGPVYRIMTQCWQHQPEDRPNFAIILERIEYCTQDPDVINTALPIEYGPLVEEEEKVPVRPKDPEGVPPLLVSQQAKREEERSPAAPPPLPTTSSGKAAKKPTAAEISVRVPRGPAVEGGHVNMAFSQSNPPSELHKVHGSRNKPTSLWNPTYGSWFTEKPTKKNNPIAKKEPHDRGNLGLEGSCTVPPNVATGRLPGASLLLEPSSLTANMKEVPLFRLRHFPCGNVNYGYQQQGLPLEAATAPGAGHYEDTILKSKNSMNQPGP

As for `CN(C(=O)CN1CCOCC1)c1ccc2sc3c(-c4cccc5c(=O)cc(N6CC7CCC(C6)O7)oc45)cccc3c2c1` [NU5455], the inhibition at 1 µM is 2%.

For the origin of these results see article PMC6934184, “Selective DNA-PKcs inhibition extends the therapeutic index of localized radiotherapy and chemotherapy” (The Journal of Clinical Investigation, 2019).
